According to patent US7691818B2, “Peptidomimetic inhibitors of retroviral proteases and their use as antivirals” (Universita' Degli Studi Di Treiste, priority 2004, dated 2010):

target: HIV-1 recombinant protease (Human immunodeficiency virus type 1 group M subtype B, UniProt P04585); experiment: biochemical
Method: Inhibitory activity was measured in accordance with the method described by A. Tossi et al. (Eur. J. Biochem., 2000, 267, 1715) using an HIV-1 recombinant protease supplied by Bioczech (Prague, CZ) and the fluorogenic substrate Abz-Thr-Ile-Nle-Phe(p-NO2)-Gln-Arg-NH2 (abbreviated hereinafter as Abz-NF*-6) supplied by Bachem (Bubendorf, CH). Specifically, 189 μL of a 30 μM solution of Abz-NF*-6 in a 100 mM MES-NaOH buffer (pH 5.5) containing NaCl (400 mM), EDTA (1 mM), DTT (1 mM) and BSA (1 mg/mL) are incubated at 25° C. in a cuvette placed directly in the spectrofluorimeter, irradiated at 325 mn and checking that there is no increase of emission at 420 nm due to the spontaneous hydrolysis of the substrate. After 1.5 minutes 11 μL of a standard solution of HIV-PR (0.4 mg/mL) in the same buffer are added and the variation in fluorescence, due to catalysed hydrolysis of the Abz-NF*-6 substrate, is recorded for 1 minute. 2 μL of the inhibitor solution in DMSO or MES buffer are then added and the variation in fluorescence over time due to hydrolysis of the Abz-NF*-6 substrate in the presence of the specific inhibitor is recorded.

Compound | IC50
CCC(C)C(NC(=O)C(NC(C)=O)C(C)C)C(=O)N1CCC[C@H]1[C@H](O)[C@@H](O)[C@H](Cc1ccccc1)NC(=O)C(CC(N)=O)NC(=O)C(CC(C)C)NC(=O)C(CO)NC(C)=O (stereo partly drawn) [(21), NH-Ac-Ser-Leu-Asn-Phe-[φ]-Pro-Ile-Val-NH-Ac] | 0.61 nM
CC(=O)N[C@@H](Cc1c[nH]c2ccccc12)C(=O)N[C@H](C(=O)N[C@@H](Cc1ccccc1)[C@H](O)[C@@H](O)[C@@H]1CCCN1C(=O)[C@@H](NC(=O)[C@H](Cc1c[nH]c2ccccc12)NC(C)=O)C(C)C)C(C)C [(22), NH-Ac-Trp-Val-Phe-[φ]-Pro-Val-Trp-NH-Ac] | 0.06 nM
Cc1cccc(C)c1OCC(=O)N[C@@H](Cc1ccccc1)[C@H](O)[C@@H](O)[C@@H]1CCCN1C(=O)COc1c(C)cccc1C [(23), DmPoa-Phe-[φ]-Pro-DmPoa] | 9.6 nM
CC(=O)NC(Cc1c[nH]c2ccccc12)C(=O)NC(C(=O)N1CCC[C@H]1[C@H](O)[C@@H](O)[C@H](Cc1ccccc1)NC(=O)COc1c(C)cccc1C)C(C)C (stereo partly drawn) [(24), DmPoa-Phe-[φ]-Pro-Val-Trp-NH-Ac] | 75.3 nM
Cc1cccc(C)c1OCC(=O)N[C@@H](Cc1ccccc1)[C@H](O)[C@@H](O)[C@@H]1CCCN1C(=O)COc1ccccc1 [(25), DmPoa-Phe-[φ]-Pro-Poa] | 84.7 nM
